Reference: patent US11504383B2, “Crystalline forms of a Ryanodine receptor modulator and uses thereof” (ARMGO Pharma, Inc., priority 2021, dated 2022)
“Also recorded” adds a separate entry of the source.

Legend:
Assay type in all cases: physicochemical
[1] = Storage stability of the polymorphs followed by XRD; conditions: after 24 months (XRD at 3, 6, 12 and 24 months)
Method: The top panel depicts the polymorph at initiation and the bottom three panels depict the polymorph after 24 months. FIG. 5 Panel A: initial control; FIG. 5 Panel B: sample stored for 2 years in open bottle in stability chambers at 25° C./60% relative humidity (RH); FIG. 5 Panel C: sample stored for 2 years in closed bottle in stability chambers at 40° C./75% RH; FIG. 5 Panel D: sample stored for 2 years in open bottle in stability chambers at 40° C./75% RH.
The top panel depicts the polymorph at initiation and the bottom panels depict the polymorph after 3, 6, 12 and 24 months.

[2] = Competitive slurry experiments mixing Form 1 and Form 2 in various solvents; conditions: competitive slurry experiments at 15° C. and 40° C.
Method: Competitive slurry experiments were performed at 15° C. (Table 5) or 40° C. (Table 6) by mixing Form 1 and Form 2 in various solvents in acetonitrile/water, acetone/water and methanol/water mixtures. […] (Table 5) or 40° C. (Table 6).

[3] = Dynamic vapor sorption (hygroscopicity); conditions: DVS, 25° C., 0-90% relative humidity
Method: Dynamic vapor sorption (DVS) analysis was performed by measuring mass variation of the crystalline form of 4-[(7-methoxy-2,3-dihydro-1,4-benzothiazepin-4(5H)yl)methyl]benzoic acid hemifumarate as a function of relative humidity using a DVS intrinsic instrument. A 5 mg to 10 mg of a sample of a crystalline form of 4-[(7-methoxy-2,3-dihydro-1,4-benzothiazepin-4(5H)yl)methyl]benzoic acid, hemifumarate was placed into a sample pan of a DVS intrinsic instrument at 25° C. under controlled humidity. The mass variation was recorded as a function of relative humidity.
Measurement of DVS comprised: (a) equilibrating a sample of the crystalline form at 25° C. and 50% relative humidity in a temperature-controlled and humidity controlled chamber until mass variation is less than 0.002% per minute for 6 hours; (b) increasing the relative humidity from 50% to 90% at a rate of 10% per hour; (c) equilibrating the sample at 90% relative humidity until mass variation of less than 0.002% per minute for 6 hours is observed; (d) decreasing the relative humidity from 90% to 0% at a rate of 10% per hour; (e) equilibrating the sample at 0% relative humidity until mass variation of less than 0.002% per minute for 6 hours is observed; and (f) increasing the relative humidity from 0% to 50% at a rate of 10% per hour.

[4] = Thermogravimetric analysis (loss of mass before melting/degradation); conditions: 25° C. to 250° C. at about 10° C./minute
Method: Thermogravimetric analysis (TGA) was performed. A 10 to 20 mg of sample of a crystalline form of 4-[(7-methoxy-2,3-dihydro-1,4-benzothiazepin-4(5H)yl)methyl]benzoic acid hemifumarate was placed into an aluminum pan, with nitrogen purge. The sample was equilibrated at 25° C. in a temperature-controlled chamber. The sample was heated at a scan rate of about 10° C./minute to 250° C. under nitrogen purge. A TGA Q5000 thermogravimetric analysis instrument was used.

## COc1ccc2c(c1)CN(Cc1ccc(C(=O)O)cc1)CCS2.O=C(O)/C=C/C(=O)O [Form 2, 4-[(7-methoxy-2,3-dihydro-1,4-benzothiazepin-4(5H)yl)methyl]benzoic acid, hemifumarate]
[1]
  Stability of the polymorph on storage (XRD, FIG. 10): stable
[2]
  Relative stability of the forms: more stable than Form 1
[3]
  Hygroscopicity: non-hygroscopic; also recorded: not hygroscopic
[4]
  Loss of mass before melting degradation (TGA): < 0.1%
